Test [1] is described as follows: Inhibition of NS5B polymerase in HCV genotype 1a H77 infected in human HuH7 replicon cells assessed as inhibition of viral replication after 3 days by luciferase reporter gene assay.
Test [2] in a line: Inhibition of NS5B polymerase in HCV genotype 1b Con1 infected in human HuH7 replicon cells assessed as inhibition of viral replication after 3 days by luciferase reporter gene assay.

SMILES strings stand for the structures.

With `CCOC(=O)[C@H](C)N[P@](=O)(OC[C@H]1O[C@@H](n2ccc(=O)[nH]c2=O)[C@](Cl)(Br)[C@@H]1O)Oc1ccccc1`, the 50% effective concentration (EC50) in test [1] was 298 nM; in test [2], 301 nM.
The corresponding values for `CC(C)C(=O)OC[C@H](C)NP(=O)(OC[C@H]1O[C@@H](n2ccc(=O)[nH]c2=O)[C@](Cl)(Br)[C@@H]1O)Oc1ccccc1` (stereo partly drawn) are 317 nM and 455 nM.
The matching figures for `CC(C)OC(=O)[C@H](C)N[P@](=O)(OC[C@H]1O[C@@H](n2ccc(=O)[nH]c2=O)[C@](Cl)(Br)[C@@H]1OC(=O)[C@@H](N)C(C)C)Oc1cccc2ccccc12`: 94 nM and 99 nM.
In the case of `COc1cccc(O[P@](=O)(N[C@@H](C)C(=O)OC(C)C)OC[C@H]2O[C@@H](n3ccc(=O)[nH]c3=O)[C@](Cl)(Br)[C@@H]2O)c1`, the EC50 came out at 98 nM in test [1] and 127 nM in test [2].
The corresponding values for `CCOC(=O)[C@H](C)N[P@@](=O)(OC[C@H]1O[C@@H](n2ccc(=O)[nH]c2=O)[C@](Cl)(Br)[C@@H]1O)Oc1ccccc1` are 1210 nM and 1190 nM.
Take `CCOC(=O)C(C)(C)NP(=O)(OC[C@H]1O[C@@H](n2ccc(=O)[nH]c2=O)[C@](Cl)(Br)[C@@H]1O)Oc1ccccc1` (stereo partly drawn): the EC50 stood at 960 nM in test [1] and 1170 nM in test [2].
In the case of `CC(C)OC(=O)[C@H](C)N[P@](=O)(OC[C@H]1O[C@@H](n2ccc(=O)[nH]c2=O)[C@](Cl)(Br)[C@@H]1OC(=O)[C@@H](N)C(C)C)Oc1ccccc1`, the EC50 in test [1] was determined as 156 nM; in test [2], 167 nM.
As to `CC(C)OC(=O)[C@H](C)N[P@](=O)(OC[C@H]1O[C@@H](n2ccc(=O)[nH]c2=O)[C@](Cl)(Br)[C@@H]1O)Oc1ccccc1`, the values for the EC50 in test [1] and in test [2] were 114 nM and 147 nM, respectively.
The matching figures for `COCC(C)C(=O)OC[C@H](C)NP(=O)(OC[C@H]1O[C@@H](n2ccc(=O)[nH]c2=O)[C@](Cl)(Br)[C@@H]1O)Oc1ccccc1` (stereo partly drawn): 592 nM and 522 nM.
The matching figures for `COCC(=O)OC[C@H](C)NP(=O)(OC[C@H]1O[C@@H](n2ccc(=O)[nH]c2=O)[C@](Cl)(Br)[C@@H]1O)Oc1ccccc1` (stereo partly drawn): 2500 nM and 3040 nM.
The corresponding values for `CC(C)OC(=O)[C@H](C)N[P@](=O)(OC[C@H]1O[C@@H](n2ccc(=O)[nH]c2=O)[C@](Cl)(Br)[C@@H]1O)Oc1cccc2ccccc12` are 106 nM and 139 nM.
With `COCC(C)OC(=O)[C@H](C)NP(=O)(OC[C@H]1O[C@@H](n2ccc(=O)[nH]c2=O)[C@](Cl)(Br)[C@@H]1O)Oc1ccccc1` (stereo partly drawn), the 50% effective concentration (EC50) in test [1] is 414 nM; in test [2], 387 nM.
The corresponding values for `CC(C)OC(=O)C(C)(C)NP(=O)(OC[C@H]1O[C@@H](n2ccc(=O)[nH]c2=O)[C@](Cl)(Br)[C@@H]1O)Oc1ccccc1` (stereo partly drawn) are 1090 nM and 1380 nM.
On to `CC(C)OC(=O)[C@H](C)N[P@@](=O)(OC[C@H]1O[C@@H](n2ccc(=O)[nH]c2=O)[C@](Cl)(Br)[C@@H]1O)Oc1ccccc1`, for which the EC50 in test [1] is 415 nM; in test [2], 515 nM.

Broadly, the EC50 is the concentration at which the effect is half-maximal.
